Data published in ChEMBL document CHEMBL3872213, “Synthesis and biological activity of furoxan derivatives against Mycobacterium tuberculosis” (Eur J Med Chem, 2016).
Values after ≈ are worked out from the molar mass of the structure shown.

Legend:
[1] = tested on: Mycobacterium tuberculosis; test: Antitubercular activity against clinical isolates of isoniazid/rifampicin/streptomycin/ethambutal resistant Mycobacterium tuberculosis after 7 days by REMA method; type: functional; settings: 168 h
[2] = tested on: Mycobacterium tuberculosis; test: Antitubercular activity against multi-drug resistant Mycobacterium tuberculosis; type: functional

## O=C(N/N=C/c1cccc(Oc2no[n+]([O-])c2S(=O)(=O)c2ccccc2)c1)c1ccncc1
[1]
  MIC90: 21.3 µM (≈ 9.91 µg/mL)

## O=C(N/N=C/c1ccccc1Oc1no[n+]([O-])c1S(=O)(=O)c1ccccc1)c1ccncc1
[1]
  MIC90: 50 µM (≈ 23.3 µg/mL)

## O=C(N/N=C/c1ccc(Oc2no[n+]([O-])c2-c2ccccc2)cc1)c1ccncc1
[1]
  MIC90: 24.3 µM (≈ 9.75 µg/mL)

## O=C(N/N=C/c1ccc(O)cc1)c1ccncc1
[2]
  MIC90: > 62 µM

## O=C(N/N=C/c1ccc(Oc2no[n+]([O-])c2S(=O)(=O)c2ccccc2)cc1)c1ccncc1
[1]
  MIC90: 7 µM (≈ 3.26 µg/mL)
